Several values for one entry are separate records, joined by “and”; a condition that tells them apart may be missing. Equal entries are not always repeated.
System: 945468-187-T-J3-PDC spheroids with HUVEC/MSC, viability
Assay: Anticancer human tumor 945468-187-T-J3-PDC patient-derived rectal carcinoma cell line growth inhibition [PI3K]
Conditions: for viability, T/C: stronger effect = lower value
Text: Combinatorial screen of targeted agents with the PI3K inhibitors inavolisib, alpelisib, duvelisib, and copanlisib in multi-cell type tumor spheroids
A high-throughput screen of multi-cell type tumor spheroids was designed to identify active combinations of targeted small molecules and PI3K pathway inhibitors. Complex spheroids include a stromal component modeled by human endothelial cells (HUVEC) and fibroblasts modeled by human mesenchymal stem cells (MSCs). The concentration ranges selected for each drug and investigational agent were based upon clinically achievable concentrations if the clinical Cmax of the agent was known.
Compounds. The drugs and investigational agents: inavolisib (NSC800729), alpelisib (NSC765974), duvelisib (NSC772469), copanlisib (NSC816437), ipatasertib (NSC767898), afuresertib (NSC778305), talazoparib (NSC767125), sapanisertib (NSC764658), selumetinib (NSC741078), tovorafenib (DAY101, NSC766906), vemurafenib (NSC761431), ravoxertinib (NSC781343), sotorasib (NSC818433), MRTX1133 (NSC 836407), abemaciclib (NSC 768073), palbociclib (NSC758247), venetoclax (NSC 766270), SY5609 (NSC837396), enzalutamide (NSC755605), and darolutamide (NSC825331), were obtained from the National Cancer Institute (NCI) Developmental Therapeutics Program Chemical Repository. The FDA-approved anticancer drug set is available from the NCI Developmental Therapeutics Program. […] The stock solutions were prepared in dimethyl sulfoxide (DMSO, Sigma-Aldrich, St. Louis, MO, cat. D2650) at 800-fold the tested concentration and stored at -70 degrees C prior to their use. All drugs and investigational agents were tested over a range starting from a high concentration at or near the clinical Cmax and decreasing in half-log increments. If the clinical Cmax for an agent had not been determined, the highest concentration tested was 10 microM.
Cell Culture. All cells were maintained in an incubator at 37 degrees C and 5% CO2 with 95% humidity. The PDC lines were cultured according to standard operating procedures established by the NCI PDMR (https://pdmr.cancer.gov/sops/default.htm). All PDCs were thawed and cultured in Matrigel-coated flasks prepared with a working solution of 1X Ham's F-12 nutrient mix, without supplementation (Invitrogen, Waltham, MA, cat. 11765054), 100 U/mL penicillin-streptomycin (Invitrogen, cat. 15140122), and 2.5% Matrigel (Corning Inc., Corning, NY, cat. 354248) for the first three passages. The 354836-022-R-J1-PDC, 475296-252-R-J1-PDC, and 997726-040-R-J2-PDC lines were cultured in 6A media, which includes advanced DMEM/F-12 (Thermo Fisher Scientific, cat. 12634028), 10 mM HEPES (Thermo Fisher Scientific, cat. 15630080), 1X GlutaMAX supplement (Thermo Fisher Scientific, cat. 35050061), 0.1 mg/mL primocin (InvivoGen, San Diego, CA, cat. ant-pm-2), 10% defined fetal bovine serum, heat inactivated (HyClone Laboratories Inc., Logan, UT, cat. SH30070.03HI), 50% L-WRN conditioned media (ATCC, cat. CRL-3276), 1.25 mM N-Acetyl-L-cysteine (Sigma-Aldrich, cat. A9165), 10 mM nicotinamide (Sigma-Aldrich, cat. N0636), 1X B-27 supplement (Thermo Fisher Scientific, cat. 17504044), 1X N-2 supplement (Thermo Fisher Scientific, cat. 17502048), and 10 microM Y-27632 dihydrochloride (Tocris Bioscience, Bristol, United Kingdom, cat. 1254). The 624824-186-R-J2-PDC line was cultured in 6C/Colon 1B media, which includes all 6A media components plus 50 ng/mL human EGF recombinant protein (Thermo Fisher Scientific, cat. PHG0311). […]
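Also: spheroids exposed to agents for 7 days before viability read.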
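For viability, T/C in this document: 100% = DMSO vehicle control viability.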

`C#Cc1c(F)ccc2cc(O)cc(-c3ncc4c(N5CC6CCC(C5)N6)nc(OCC56CCCN5CC(F)C6)nc4c3F)c12` (stereo not given) was tested, and the viability, T/C (compound 0.0316 µM) was 96.4% [middle of 4 runs], the viability, T/C (compound 0.1 µM) was 95.8% [middle of 4 runs] and the viability, T/C (compound 0.316 µM) was 98.2% [middle of 4 runs]. The viability, T/C (compound 1 µM) was 114% (2×) and 95.9% and 89.8%, the viability, T/C (compound 3.16 µM) was 125% [middle of 4 runs] and the viability, T/C (compound 10 µM) was 113% [middle of 4 runs]. The IC50 (curve of compound) was > 10 µM.
In the case of `C=CC(=O)N1CCN(c2nc(=O)n(-c3c(C)ccnc3C(C)C)c3nc(-c4c(O)cccc4F)c(F)cc23)C(C)C1` (stereo not given), the viability, T/C (compound 0.0316 µM) is reported as 99.2% and 94% and 95.5%, the viability, T/C (compound 0.1 µM) is reported as 97.8% and 105% and 93.8% and the viability, T/C (compound 0.316 µM) is reported as 103% and 94.5% and 98.7%. The viability, T/C (compound 1 µM) was 85.6% and 92.5% and 98.2%, the viability, T/C (compound 3.16 µM) was 88.8% and 100% and 113% and the viability, T/C (compound 10 µM) was 98.1% and 103% and 116%. For the same compound, the IC50 (curve of compound) was > 10 µM.
`CC(=O)c1c(C)c2cnc(Nc3ccc(N4CCNCC4)cn3)nc2n(C2CCCC2)c1=O` was tested, and the viability, T/C (compound 0.000316 µM) was 101% [middle of 4 runs], the viability, T/C (compound 0.001 µM) was 100% [middle of 4 runs] and the viability, T/C (compound 0.00316 µM) was 83.2% and 102% (2×) and 91.3%. The viability, T/C (compound 0.01 µM) was 93.4% [middle of 4 runs], the viability, T/C (compound 0.0316 µM) was 113% [middle of 4 runs] and the viability, T/C (compound 0.1 µM) was 103% (2×) and 106% and 99.3%. For the same compound, the IC50 (curve of compound) was > 0.1 µM.
With `CC(C)NCC(C(=O)N1CCN(c2ncnc3c2C(C)CC3O)CC1)c1ccc(Cl)cc1` (stereo not given) the viability, T/C (compound 0.0316 µM) was 92.6% [middle of 4 runs], the viability, T/C (compound 0.316 µM) was 100% [middle of 4 runs] and the viability, T/C (compound 1 µM) was 94.6% [middle of 4 runs]. For the same compound, the viability, T/C (compound 3.16 µM) was 65.2% [middle of 4 runs] and the viability, T/C (compound 10 µM) was 39.3% [middle of 4 runs].
`CC(C)n1nc(-c2ccc3oc(N)nc3c2)c2c(N)ncnc21` was tested, and the viability, T/C (compound 0.000316 µM) was 91.3% [middle of 4 runs], the viability, T/C (compound 0.001 µM) was 94.2% [middle of 4 runs] and the viability, T/C (compound 0.00316 µM) was 104% [middle of 4 runs]. For the same compound, the viability, T/C (compound 0.01 µM) was 102% [middle of 4 runs] and the IC50 (curve of compound) was > 0.1 µM and 0.0939 µM.
For `CC(Cn1ccc(-c2ccc(C#N)c(Cl)c2)n1)NC(=O)c1cc(C(C)O)[nH]n1` (stereo not given), the viability, T/C (compound 0.0316 µM) was 89.7% [middle of 4 runs], the viability, T/C (compound 0.1 µM) was 97.5% [middle of 4 runs] and the viability, T/C (compound 0.316 µM) was 94.9% [middle of 4 runs]. For the same compound, the viability, T/C (compound 1 µM) was 99.5% [middle of 4 runs], the viability, T/C (compound 3.16 µM) was 114% [middle of 4 runs] and the viability, T/C (compound 10 µM) was 89.8% and 101% (2×) and 99%. The IC50 (curve of compound) was > 10 µM.
With `CC(Nc1ccc2c(c1)OCCn1cc(N3C(=O)OCC3C(F)F)nc1-2)C(N)=O` (stereo not given) the viability, T/C (compound 0.00316 µM) was 103% [middle of 7 runs], the viability, T/C (compound 0.01 µM) was 97.2% [middle of 7 runs] and the viability, T/C (compound 0.0316 µM) was 99.6% [middle of 7 runs]. The viability, T/C (compound 0.316 µM) was 99.6% [middle of 7 runs], the viability, T/C (compound 1 µM) was 73% [middle of 7 runs] and the IC50 (compound alone, run of 06/12/2023) was > 1 µM.
`CC(Nc1ncnc2nc[nH]c12)c1cc2cccc(Cl)c2c(=O)n1-c1ccccc1` (stereo not given) was tested, and the viability, T/C (compound 0.0316 µM) was 100% [middle of 8 runs], the viability, T/C (compound 0.1 µM) was 96% [middle of 8 runs] and the viability, T/C (compound 0.316 µM) was 96% [middle of 8 runs]. For the same compound, the viability, T/C (compound 1 µM) was 99.5% [middle of 8 runs], the viability, T/C (compound 3.16 µM) was 98.2% [middle of 8 runs] and the viability, T/C (compound 10 µM) was 98.8% [middle of 8 runs]. The IC50 (compound alone, run of 06/13/2023) was > 10 µM.
With `CC1(C)CCC(CN2CCN(c3ccc(C(=O)NS(=O)(=O)c4ccc(NCC5CCOCC5)c([N+](=O)[O-])c4)c(Oc4cnc5[nH]ccc5c4)c3)CC2)=C(c2ccc(Cl)cc2)C1` the viability, T/C (compound 0.0316 µM) was 105% [middle of 4 runs], the viability, T/C (compound 0.1 µM) was 110% [middle of 4 runs] and the viability, T/C (compound 0.316 µM) was 101% [middle of 4 runs]. The viability, T/C (compound 1 µM) was 112% [middle of 4 runs], the viability, T/C (compound 3.16 µM) was 130% [middle of 4 runs] and the IC50 (curve of compound) was > 10 µM and 7.28 µM and 6.4 µM.
With `CC1(C)CCC(Nc2ncc(C(F)(F)F)c(-c3c[nH]c4c(P(C)(C)=O)c(C#N)ccc34)n2)CN1` (stereo not given) the viability, T/C (compound 0.0316 µM) was 79.6% [middle of 4 runs], the viability, T/C (compound 10 µM) was 12.7% [middle of 4 runs] and the IC50 (curve of compound) was 5.16 µM [middle of 4 runs].

— PubChem BioAssay AID1963968 (Molecular Pharmacology Branch, DTP, NCI, 2024)
